These results are taken from patent US6410792B1, “Amide derivatives and methods for using the same as selective neuropeptide Y receptor antagonists” (Bayer Corporation, priority 1997, dated 2002).

The IC50 is the point on the concentration scale where inhibition reaches its midpoint.

Where two headings read alike, the source gives them in different places.

One test concerns the target T1, Y2 receptor (Homo sapiens, UniProt P49146).
T1 sequence (P49146 1-381): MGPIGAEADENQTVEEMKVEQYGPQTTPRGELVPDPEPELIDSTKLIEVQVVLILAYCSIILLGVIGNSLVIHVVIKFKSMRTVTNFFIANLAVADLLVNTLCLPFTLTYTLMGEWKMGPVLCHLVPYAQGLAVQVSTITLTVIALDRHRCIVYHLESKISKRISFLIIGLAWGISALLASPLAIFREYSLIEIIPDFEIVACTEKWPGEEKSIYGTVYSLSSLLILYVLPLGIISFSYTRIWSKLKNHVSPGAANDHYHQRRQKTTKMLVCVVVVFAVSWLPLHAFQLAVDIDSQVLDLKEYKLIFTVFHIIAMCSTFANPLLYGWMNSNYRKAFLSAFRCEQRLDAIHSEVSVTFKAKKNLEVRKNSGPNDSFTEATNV
Nature of the test: Y2 receptor binding assay ([125I]PYY, membrane protein). Particulars: [125I]PYY binding, membrane protein; read-out: hNPY2 IC50. In a few lines: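 Filtration binding with membrane protein and drug dilution, 2 h at room temperature with mixing, radioactivity counted by gamma or scintillation. Y2: 25 pM [125I]PYY in Krebs-Ringer bicarbonate pH 7.4 with 0.01% BSA, nonspecific by 1 μM NPY. Y4/PP1: 50 pM [125I]hPP in HEPES-buffered saline pH 7.4 with protease inhibitors and 0.3% BSA, nonspecific by 1 μM hPP.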

The target of a further test is T2, Human NPY5 receptor (Homo sapiens, UniProt Q15761).
T2 sequence (Q15761 1-445): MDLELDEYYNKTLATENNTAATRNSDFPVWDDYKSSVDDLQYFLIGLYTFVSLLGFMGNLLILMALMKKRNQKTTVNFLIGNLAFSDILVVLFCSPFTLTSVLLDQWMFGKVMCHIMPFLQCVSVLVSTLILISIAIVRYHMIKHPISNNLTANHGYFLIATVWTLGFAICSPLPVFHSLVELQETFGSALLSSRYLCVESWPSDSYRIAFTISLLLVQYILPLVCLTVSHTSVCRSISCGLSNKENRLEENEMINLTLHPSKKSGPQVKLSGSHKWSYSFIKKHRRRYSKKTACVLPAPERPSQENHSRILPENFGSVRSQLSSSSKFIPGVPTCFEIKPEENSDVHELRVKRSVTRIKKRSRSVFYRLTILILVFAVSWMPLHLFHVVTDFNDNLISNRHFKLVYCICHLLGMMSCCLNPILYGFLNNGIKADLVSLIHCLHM
Nature of the test: Human NPY5 receptor binding assay ([125I]PYY, membrane protein). In a few lines:
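Compounds compete with porcine [125I]PYY (75-100 pM) for receptor sites on membrane protein over a 2 hour room-temperature incubation at pH 7.4. Unlabelled PYY at 1 μM defines nonspecific binding, and filter-retained radioactivity gives the read-out.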

Setting [1] is: [125I]PYY binding, read-out: hNPY5 IC50.

Turning to `NC1CCN(CC(=O)Nc2ccc(C3CCCCC3)cc2)C1` (stereo not drawn) [Compound 100, 2-(3-Amino-pyrrolidin-1-yl)-N-(4-cyclohexyl-phenyl)-acetamide], the concentration for half-maximal inhibition (IC50) on Y2 receptor is more than 5 µM; on Human NPY5 receptor (setting [1]), 2.4 µM.

`O=C(CN1CCC(O)C1)Nc1ccc(C(=O)c2ccccc2)cc1` (stereo not drawn) [Compound 103, N-(4-Benzoyl-phenyl)-2-(3-hydroxy-pyrrolidin-1-yl)-acetamide]: the IC50 was more than 5 µM on Y2 receptor and 3 µM at Human NPY5 receptor (setting [1]).

`COC[C@@H]1CCCN1CC(=O)Nc1ccc(C(=O)c2ccccc2)cc1` [Compound 104, N-(4-Benzoyl-phenyl)-2-(2S-methoxymethyl-pyrrolidin-1-yl)-acetamide]: the IC50 at Y2 receptor is more than 5 µM; at Human NPY5 receptor (setting [1]), 0.49 µM.

As for `CC1(C)C[C@@H]2C[C@@](C)(CN2CC(=O)Nc2ccc(C(=O)c3ccccc3)cc2)C1` [Compound 105, N-(4-Benzoyl-phenyl)-2-((1S,5R)-1,3,3-trimethyl-6-aza-bicyclo[3.2.1]oct-6-yl)-acetamide], the half-inhibitory concentration (IC50) on Y2 receptor is more than 5 µM; on Human NPY5 receptor (setting [1]), 5.1 µM.

With `O=C(CN1CCC[C@H]1C(=O)OCc1ccccc1)Nc1ccc(C(=O)c2ccccc2)cc1` [Compound 106, (2S)-1-[(4-Benzoyl-phenylcarbamoyl)-methyl]-pyrrolidine-2-carboxylic acid benzyl ester], the 50% inhibitory concentration (IC50) is more than 5 µM on Y2 receptor and 3 µM at Human NPY5 receptor (setting [1]).

In the case of `COC(=O)[C@@H]1CCCN1CC(=O)Nc1ccc(C(=O)c2ccccc2)cc1` [Compound 107, (2S)-1-[(4-Benzoyl-phenylcarbamoyl)-methyl]-pyrrolidine-2-carboxylic acid methyl ester], the IC50 on Y2 receptor is more than 5 µM; at Human NPY5 receptor (setting [1]), 2.9 µM.

On to `O=C(CN1CCC(Br)CC1)Nc1ccc(C(=O)c2ccccc2)cc1` [Compound 108, N-(4-Benzoyl-phenyl)-2-(4-bromo-piperidin-1-yl)-acetamide], for which the IC50 on Y2 receptor was more than 5 µM; at Human NPY5 receptor (setting [1]), 0.97 µM.

In the case of `O=C(CN1C[C@H](O)C[C@H]1C(=O)O)Nc1ccc(C(=O)c2ccccc2)cc1` [Compound 109, (2S,4R)-1-[(4-Benzoyl-phenylcarbamoyl)-methyl]-4-hydroxy-pyrrolidine-2-carboxylic acid], the half-maximal inhibitory concentration (IC50) on Y2 receptor is more than 5 µM; on Human NPY5 receptor (setting [1]), more than 10 µM.

Consider `O=C(CN1CCC[C@H]1C(=O)O)Nc1ccc(C(=O)c2ccccc2)cc1` [Compound 110, (2S)-1-[(4-Benzoyl-phenylcarbamoyl)-methyl]-pyrrolidine-2-carboxylic acid], for which the half-inhibitory concentration (IC50) is more than 5 µM at Y2 receptor and 8.7 µM at Human NPY5 receptor (setting [1]).

Turning to `NC1CCN(CC(=O)Nc2ccc(C(=O)c3ccccc3)cc2)C1` (stereo not drawn) [Compound 112, 2-(3-Amino-pyrrolidin-1-yl)-N-(4-benzoyl-phenyl)-acetamide], the IC50 was more than 5 µM at Y2 receptor and 3.9 µM at Human NPY5 receptor (setting [1]).

Consider `O=C(CN1CCC[C@@H]1CO)Nc1ccc(C2CCCCC2)cc1` [Compound 113, N-(4-Cyclohexyl-phenyl)-2-(2R-hydroxymethyl-pyrrolidin-1-yl)-acetamide], for which the IC50 is more than 5 µM on Y2 receptor and 0.7 µM at Human NPY5 receptor (setting [1]).

With `CC1(C)CC(C(N)=O)C(C)(C)N1CC(=O)Nc1ccc(C2CCCCC2)cc1` (stereo not drawn) [Compound 114, 1-[(4-Cyclohexyl-phenylcarbamoyl)-methyl] 2,2,5,5-tetramethyl-pyrrolidine-3-carboxylic acid amide], the IC50 was more than 5 µM at Y2 receptor and 2.4 µM at Human NPY5 receptor (setting [1]).

Consider `C=C(C)[C@@H]1CN(CC(=O)Nc2ccc(C3CCCCC3)cc2)[C@H](C(=O)O)[C@@H]1CC(=O)O` [Compound 115, (2S,3R,4R)-3-Carboxymethyl-1-[(4-cyclohexyl-phenylcarbamoyl)-methyl]-4-isopropenyl-pyrrolidine-2-carboxylic acid], for which the half-maximal inhibitory concentration (IC50) on Y2 receptor was more than 5 µM; at Human NPY5 receptor (hNPY5 IC50, [125I]PYY binding) it was more than 10 µM.

In the case of `COc1ccc(C(=O)C2CCN(CC(=O)Nc3ccc(C4CCCCC4)cc3)CC2)cc1` [Compound 116, N-(4-Cyclohexyl-phenyl)-2-[4-(4-methoxy-benzoyl)-piperidin-1-yl]-acetamide], the figures for the concentration for half-maximal inhibition (IC50) at Y2 receptor and on Human NPY5 receptor (setting [1]) were more than 5 µM and 9.5 µM, respectively.

`O=C(CN1CCC[C@@H]1C(=O)O)Nc1ccc(C2CCCCC2)cc1` [Compound 117, (2R)-1-[(4-Cyclohexyl-phenylcarbamoyl)-methyl]-pyrrolidine-2-carboxylic acid]: the results for the IC50 at Y2 receptor and on Human NPY5 receptor (setting [1]) were more than 5 µM and 3 µM, respectively.

Regarding `O=C(CN1CCCC1CO)Nc1ccc(C(=O)c2ccccc2)cc1` (stereo not drawn) [Compound 118, N-(4-Benzoyl-phenyl)-2-(2-hydroxymethyl-pyrrolidin-1-yl)-acetamide], the half-inhibitory concentration (IC50) on Y2 receptor was more than 5 µM; at Human NPY5 receptor (setting [1]) it was 2 µM.

On to `CC1(C)CC(C(N)=O)C(C)(C)N1CC(=O)Nc1ccc(C(=O)c2ccccc2)cc1` (stereo not drawn) [Compound 119, 1-[(4-Benzoyl-phenylcarbamoyl)-methyl]-2,2,5,5-tetramethyl-pyrrolidine-3-carboxylic acid amide], for which the IC50 is more than 5 µM on Y2 receptor and 3.6 µM at Human NPY5 receptor (setting [1]).

For the compound `C=C(C)C1CN(CC(=O)Nc2ccc(C(=O)c3ccccc3)cc2)C(C(=O)O)C1CC(=O)O` (stereo not drawn) [Compound 120, 1-[(4-Benzoyl-phenylcarbamoyl)-methyl]-3-carboxymethyl-4-isopropenyl-pyrrolidine-2-carboxylic acid], the IC50 was more than 5 µM at Y2 receptor and more than 10 µM at Human NPY5 receptor (hNPY5 IC50, [125I]PYY binding).

For `O=C(CN1CCC(C(=O)c2ccc(F)cc2)CC1)Nc1ccc(C(=O)c2ccccc2)cc1` [Compound 121, N-(4-Benzoyl-phenyl)-2-[4-(4-fluoro-benzoyl)-piperidin-1-yl]-acetamide], the results for the concentration for half-maximal inhibition (IC50) at Y2 receptor and on Human NPY5 receptor (setting [1]) were more than 5 µM and 0.095 µM, respectively.

For `COc1ccc(C(=O)C2CCN(CC(=O)Nc3ccc(C(=O)c4ccccc4)cc3)CC2)cc1` [Compound 122, N-(4-Benzoyl-phenyl)-2-[4-(4-methoxy-benzoyl)-piperidin-1-yl]-acetamide], the IC50 at Y2 receptor is more than 5 µM; at Human NPY5 receptor (setting [1]), 9.9 µM.

For the compound `NC(=O)C1CCCN1CC(=O)Nc1ccc(C(=O)c2ccccc2)cc1` (stereo not drawn) [Compound 123, 1-[(4-Benzoyl-phenylcarbamoyl)-methyl]-pyrrolidine-2-carboxylic acid amide], the IC50 is more than 5 µM on Y2 receptor and 0.91 µM at Human NPY5 receptor (setting [1]).

As for `O=C(CN1CCCC1C(O)(c1ccccc1)c1ccccc1)Nc1ccc(C(=O)c2ccccc2)cc1` (stereo not drawn) [Compound 125, N-(4-Benzoyl-phenyl)-2-[2-(hydroxy-diphenyl-methyl)-pyrrolidin-1-yl]-acetamide], the 50% inhibitory concentration (IC50) is more than 5 µM on Y2 receptor and 0.43 µM at Human NPY5 receptor (setting [1]).

In the case of “(2R,4R)-1-[(4-Benzoyl-phenylcarbamoyl)-methyl]-4-hydroxy-pyrrolidine-2-carboxylic acid [Compound 101]”, the half-maximal inhibitory concentration (IC50) was more than 5 µM at Y2 receptor and 6.1 µM on Human NPY5 receptor (setting [1]).

Take “(2R,4R)-1-[(4-Cyclohexyl-phenylcarbamoyl)-methyl]-4-hydroxy-pyrrolidine-2-carboxylic acid [Compound 90]”: the concentration for half-maximal inhibition (IC50) at Y2 receptor is more than 5 µM; on Human NPY5 receptor (setting [1]) it was 3.8 µM.

In the case of “N-(4-Benzoyl-phenyl)-2-(4-benzyl-4-hydroxy-piperidin-1-yl)-acetamide [Compound 111]”, the half-inhibitory concentration (IC50) was more than 5 µM on Y2 receptor and 0.16 µM at Human NPY5 receptor (setting [1]).

In the case of “N-(4-Benzoyl-phenyl)-2-[4-(4-bromo-phenyl)-4-hydroxy-piperidin-1-yl]-acetamide [Compound 89]”, the concentration for half-maximal inhibition (IC50) on Y2 receptor was more than 5 µM; on Human NPY5 receptor (setting [1]) it was 0.52 µM.

As for “N-(4-Cyclohexyl-phenyl)-2-[4-hydroxy-4-(3-trifluoromethyl-phenyl)-piperidin-1-yl]-acetamide [Compound 62]”, the IC50 is more than 5 µM on Y2 receptor and 0.42 µM at Human NPY5 receptor (setting [1]).
